Experiments:
[1] = Binding affinity to 5'-CCCCCCGG-3' DNA hairpin assessed as change in fluorescence intensity at 1 uM after 45 mins by fluorescence quenching analysis relative to control
[2] = Binding affinity to 5'-GCCGGCGC-3' DNA hairpin assessed as change in fluorescence intensity at 1 uM after 45 mins by fluorescence quenching analysis relative to control
[3] = Binding affinity to 5'-GGGCCGCC-3' DNA hairpin assessed as change in fluorescence intensity at 1 uM after 45 mins by fluorescence quenching analysis relative to control
[4] = Binding affinity to 5'-GGGCGGCC-3' DNA hairpin assessed as change in fluorescence intensity at 1 uM after 45 mins by fluorescence quenching analysis relative to control
[5] = Binding affinity to 5'-CGCGCCGG-3' DNA hairpin assessed as change in fluorescence intensity at 1 uM after 45 mins by fluorescence quenching analysis relative to control
[6] = Binding affinity to 5'-GCCGCGGG-3' DNA hairpin assessed as change in fluorescence intensity at 1 uM after 45 mins by fluorescence quenching analysis relative to control
[7] = Binding affinity to 5'-GCGGGCCG-3' DNA hairpin assessed as change in fluorescence intensity at 1 uM after 45 mins by fluorescence quenching analysis relative to control
[8] = Binding affinity to 5'-CGGGGCGG-3' DNA hairpin assessed as change in fluorescence intensity at 1 uM after 45 mins by fluorescence quenching analysis relative to control
[9] = Binding affinity to 5'-GCGGGCGC-3' DNA hairpin assessed as change in fluorescence intensity at 1 uM after 45 mins by fluorescence quenching analysis relative to control
[10] = Binding affinity to 5'-GCCCCCCC-3' DNA hairpin assessed as change in fluorescence intensity at 1 uM after 45 mins by fluorescence quenching analysis relative to control
[11] = Binding affinity to 5'-GCCCCGCG-3' DNA hairpin assessed as change in fluorescence intensity at 1 uM after 45 mins by fluorescence quenching analysis relative to control
[12] = Binding affinity to 5'-CCGGCGGC-3' DNA hairpin assessed as change in fluorescence intensity at 1 uM after 45 mins by fluorescence quenching analysis relative to control
[13] = Binding affinity to 5'-CGGGCCGC-3' DNA hairpin assessed as change in fluorescence intensity at 1 uM after 45 mins by fluorescence quenching analysis relative to control
[14] = Binding affinity to 5'-CCCCGCCC-3' DNA hairpin assessed as change in fluorescence intensity at 1 uM after 45 mins by fluorescence quenching analysis relative to control
[15] = Binding affinity to 5'-CGCGCGCC-3' DNA hairpin assessed as change in fluorescence intensity at 1 uM after 45 mins by fluorescence quenching analysis relative to control
[16] = Binding affinity to 5'-CCCCCCCC-3' DNA hairpin assessed as change in fluorescence intensity at 1 uM after 45 mins by fluorescence quenching analysis relative to control
[17] = Binding affinity to 5'-GCCCGGCC-3' DNA hairpin assessed as change in fluorescence intensity at 1 uM after 45 mins by fluorescence quenching analysis relative to control
[18] = Binding affinity to 5'-CCGCGGGG-3' DNA hairpin assessed as change in fluorescence intensity at 1 uM after 45 mins by fluorescence quenching analysis relative to control
[19] = Binding affinity to 5'-CCCGCGCC-3' DNA hairpin assessed as change in fluorescence intensity at 1 uM after 45 mins by fluorescence quenching analysis relative to control
[20] = Binding affinity to 5'-GGGCGGCG-3' DNA hairpin assessed as change in fluorescence intensity at 1 uM after 45 mins by fluorescence quenching analysis relative to control
[21] = Binding affinity to 5'-CGCGGCCC-3' DNA hairpin assessed as change in fluorescence intensity at 1 uM after 45 mins by fluorescence quenching analysis relative to control
[22] = Binding affinity to 5'-GCGCCCCC-3' DNA hairpin assessed as change in fluorescence intensity at 1 uM after 45 mins by fluorescence quenching analysis relative to control
[23] = Binding affinity to 5'-GGCCGCCC-3' DNA hairpin assessed as change in fluorescence intensity at 1 uM after 45 mins by fluorescence quenching analysis relative to control
[24] = Binding affinity to 5'-GCCCGCCG-3' DNA hairpin assessed as change in fluorescence intensity at 1 uM after 45 mins by fluorescence quenching analysis relative to control
[25] = Binding affinity to 5'-GCGCGCCG-3' DNA hairpin assessed as change in fluorescence intensity at 1 uM after 45 mins by fluorescence quenching analysis relative to control
[26] = Binding affinity to 5'-CGGCGGCG-3' DNA hairpin assessed as change in fluorescence intensity at 1 uM after 45 mins by fluorescence quenching analysis relative to control
[27] = Binding affinity to 5'-GCCGCCCG-3' DNA hairpin assessed as change in fluorescence intensity at 1 uM after 45 mins by fluorescence quenching analysis relative to control
[28] = Binding affinity to 5'-CGCGCGCG-3' DNA hairpin assessed as change in fluorescence intensity at 1 uM after 45 mins by fluorescence quenching analysis relative to control
[29] = Binding affinity to 5'-CCGCGGCG-3' DNA hairpin assessed as change in fluorescence intensity at 1 uM after 45 mins by fluorescence quenching analysis relative to control
[30] = Binding affinity to 5'-GCGGGCGG-3' DNA hairpin assessed as change in fluorescence intensity at 1 uM after 45 mins by fluorescence quenching analysis relative to control
[31] = Binding affinity to 5'-GCGGGGCC-3' DNA hairpin assessed as change in fluorescence intensity at 1 uM after 45 mins by fluorescence quenching analysis relative to control
[32] = Binding affinity to 5'-GCCCCGGC-3' DNA hairpin assessed as change in fluorescence intensity at 1 uM after 45 mins by fluorescence quenching analysis relative to control
[33] = Binding affinity to 5'-CCCCGGCG-3' DNA hairpin assessed as change in fluorescence intensity at 1 uM after 45 mins by fluorescence quenching analysis relative to control
[34] = Binding affinity to 5'-GCCGCCGC-3' DNA hairpin assessed as change in fluorescence intensity at 1 uM after 45 mins by fluorescence quenching analysis relative to control
[35] = Binding affinity to 5'-CGCCCGGG-3' DNA hairpin assessed as change in fluorescence intensity at 1 uM after 45 mins by fluorescence quenching analysis relative to control
[36] = Binding affinity to 5'-GGGGCGCC-3' DNA hairpin assessed as change in fluorescence intensity at 1 uM after 45 mins by fluorescence quenching analysis relative to control

Activity [1]: 30.9%
Activity [2]: 51.9%
Activity [3]: 40%
Activity [4]: 49.4%
Activity [5]: 43.8%
Activity [6]: 52.7%
Activity [7]: 40.9%
Activity [8]: 45.5%
Activity [9]: 53.7%
Activity [10]: 10.1%
Activity [11]: 36.7%
Activity [12]: 47.4%
Activity [13]: 52.5%
Activity [14]: 45.7%
Activity [15]: 52.2%
Activity [16]: 15%
Activity [17]: 36.2%
Activity [18]: 48.6%
Activity [19]: 63.4%
Activity [20]: 52.7%
Activity [21]: 44.6%
Activity [22]: 45.7%
Activity [23]: 37.9%
Activity [24]: 43.8%
Activity [25]: 44.2%
Activity [26]: 46.5%
Activity [27]: 45.8%
Activity [28]: 43.6%
Activity [29]: 50.1%
Activity [30]: 45%
Activity [31]: 40.4%
Activity [32]: 28.6%
Activity [33]: 50%
Activity [34]: 47.9%
Activity [35]: 47.2%
Activity [36]: 51.4%
Compound: NCC1O[C@H](O[C@H]2[C@@H](O)[C@H](O[C@@H]3[C@@H](O)[C@H](N)C[C@H](N)[C@H]3O[C@H]3O[C@H](CN)[C@@H](O)[C@H](O)[C@H]3N)O[C@@H]2CSCCNC(=O)CCSCC(=O)Nc2ccc(-c3c4ccc(=O)cc-4oc4cc(O)ccc34)c(C(=O)O)c2)[C@H](N)[C@@H](O)[C@@H]1O (stereo partly specified)

— ChEMBL document CHEMBL4000244, “Probing A-form DNA: A fluorescent aminosugar probe and dual recognition by anthraquinone-neomycin conjugates” (Bioorg Med Chem, 2017)
